In patent US8293781B2, “Indole derivatives having cPLA2 inhibiting activity and applications and production methods of the same” (Daiichi Sankyo Company, Limited, priority 2007, dated 2012):
Where a name gives a salt, the structure may show the parent alone.

What was measured:
[1] = target: T1, cPLA2 crudely purified from the cytoplasm fraction of U937 (Homo sapiens, UniProt P47712); assay: Measurement of cPLA2 inhibitory activity (release of [14C]-arachidonic acid from phosphatidyl choline liposome); assay type: biochemical; conditions: cPLA2 from U937 cytoplasm fraction, [14C]arachidonyl-phosphatidyl choline liposome, 37° C., 60 minutes; read-out: cPLA2 inhibitory activity, 50% inhibiting concentration IC50
T1 construct: cPLA2 crudely purified from the cytoplasm fraction of U937; endogenous in cells; host or cells: U937 cells (cytoplasm fraction, crude purification)
T1 sequence (P47712 1-749): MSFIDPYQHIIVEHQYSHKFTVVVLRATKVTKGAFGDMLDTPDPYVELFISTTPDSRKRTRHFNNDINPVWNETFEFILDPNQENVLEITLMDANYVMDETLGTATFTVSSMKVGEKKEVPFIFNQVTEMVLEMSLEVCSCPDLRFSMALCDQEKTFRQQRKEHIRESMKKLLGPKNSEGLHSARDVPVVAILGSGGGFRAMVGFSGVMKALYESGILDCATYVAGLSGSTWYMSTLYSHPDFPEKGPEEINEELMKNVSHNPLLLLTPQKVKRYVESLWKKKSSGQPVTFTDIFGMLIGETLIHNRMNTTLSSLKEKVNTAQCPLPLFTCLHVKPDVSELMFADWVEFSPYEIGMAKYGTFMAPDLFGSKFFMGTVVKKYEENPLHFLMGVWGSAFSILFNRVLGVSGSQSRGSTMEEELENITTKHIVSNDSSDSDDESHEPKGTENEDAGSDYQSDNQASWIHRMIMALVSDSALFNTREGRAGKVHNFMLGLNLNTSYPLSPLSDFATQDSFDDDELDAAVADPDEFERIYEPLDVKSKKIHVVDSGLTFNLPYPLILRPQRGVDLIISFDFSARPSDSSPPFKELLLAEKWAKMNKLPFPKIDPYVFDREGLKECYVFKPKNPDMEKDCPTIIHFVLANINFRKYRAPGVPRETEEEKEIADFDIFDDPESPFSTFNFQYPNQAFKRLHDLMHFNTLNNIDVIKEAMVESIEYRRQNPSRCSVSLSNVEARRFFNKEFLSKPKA
Method in brief: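 The read-out is radioactivity from extracted [14C]-arachidonic acid, freed over 60 min at 37° C from liposomes of 14C-arachidonyl phosphatidylcholine (10 μM PC in the added solution). Buffer was 50 mM HEPES pH 7.5 with Ca2+, DTT, NaCl and BSA. IC50 was derived from inhibition relative to enzyme control minus no-enzyme control.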

[2] = system: Cys-LTs production in rat mast cell like cell line RBL-2H3; assay: Calcium ionophore-induced Cys-LTs production system using RBL-2H3; assay type: cell-based; conditions: 1 h, RBL-2H3, A23187 5 μM, one hour
Protocol: (§1) For the evaluation by LTB4 and Cys-LTs production inhibiting activity, the calcium ionophore-induced LTB4 and Cys-LTs production system using the rat mast cell like cell line RBL-2H3 with reference to the method of Ishiwara et al. (see Ishiwara M. et al., J Pharmacol Exp Ther 307: 583, 2003) was used. That is, rat mast cell like cell line RBL-2H3 cells were suspended in Dulbecco's modified Eagle's medium (Nacalai Tesque) containing 10% bovine fetal serum (BioWhittaker) and 10 μg/ml gentamycin (Invitrogen). The infiltrating cell suspension 200 μl containing 1×10^5 cells per well was inoculated to 96-well culture plate and cultured over night under conditions of 5% CO2 and 37° C. The culture supernatant was removed, then the test compound solution or solvent 50 μl was added. After 30 minutes preculture, calcium ionophore (A23187) was added to a final concentration of 5 μM to induce leukotriene production.
(§2) One hour after calcium ionophore stimulus, the culture supernatant was recovered and the amounts of LTB4 and Cys-LTs in the supernatant were measured using an EIA kit (made by Amersham). Based on the measurement values, the test compound concentrations suppressing 50% of the mediator production at the time of non-addition of a compound (IC50 value) were calculated.

[3] = system: TXB2 production in whole blood; assay: Calcium ionophore-induced TXB2 production system using whole blood; assay type: cell-based; conditions: Cavia porcellus, 0.25 h; Hartley guinea pig heparin blood diluted 2-fold, A23187 5 μM, 15 minutes
Protocol: For evaluation of the TXB2 production inhibiting activity, the calcium ionophore-induced TXB2 production system using whole blood with reference to the method of Alanko (see Alanko J., Prostaglandins 45: 193, 1993) was used. That is, heparin blood taken from Hartley guinea pigs was diluted 2-fold by an RPMI1640 medium (Nakalai Tesque) containing 10 μg/ml gentamycin (Invitrogen). The entire blood after dilution was inoculated in a 96-well culture plate in amounts of 200 μl per well, then the test compound solution or solvent was added. After 30 minutes preculture, calcium ionophore (A23187) was added to a final concentration of 5 μM to induce TXB2 production. 15 minutes after stimulus, the supernatant was recovered by centrifugal separation and the amount of TXB2 in the supernatant was measured using an EIA kit (Amersham).
Based on the measurement value, the test compound concentration suppressing 50% of the TXB2 production at the time of non-addition of a compound (IC50 value) was calculated.

[4] = system: LTB4 production in rat mast cell like cell line RBL-2H3; assay: Calcium ionophore-induced LTB4 production system using RBL-2H3; assay type: cell-based; conditions: 1 h, RBL-2H3, A23187 5 μM, one hour
Protocol: as §1, §2

Row | SMILES | IC50 [1] | IC50 [2] | IC50 [3] | IC50 [4]
1 | O=C(O)CCc1ccc2c(c1)c(CCc1ccccc1)cn2-c1ccc(O)cc1 [Example 126, 3-[1-(4-hydroxyphenyl)-3-(2-phenylethyl)-1H-indol-5-yl]propanoic acid] | 11 nM | 4170 nM | 1530 nM | 770 nM
2 | O=C(O)CCc1ccc2c(c1)c(CCc1ccccc1)cn2-c1ccc(F)cc1 [Example 187, 3-[1-(4-fluorophenyl)-3-(2-phenylethyl)-1H-indol-5-yl]propanoic acid] | 58 nM | 890 nM | 5140 nM | 260 nM
3 | O=C(O)CCc1ccc2c(c1)c(CCc1ccccc1)cn2-c1ccc(OC(F)F)cc1 [Example 190, 3-{1-[4-(difluoromethoxy)phenyl]-3-(2-phenylethyl)-1H-indol-5-yl}propanoic acid 2-amino-2-(hydroxymethyl)propane-1,3-diol salt (1:1)] | 28 nM | 1060 nM | 1370 nM | 380 nM
4 | COCc1ccc(-n2cc(CCc3ccccc3)c3cc(CCC(=O)O)ccc32)cc1 [Example 217, 3-{1-[4-(methoxymethyl)phenyl]-3-(2-phenylethyl)-1H-indol-5-yl}propanoic acid 2-amino-2-(hydroxymethyl)propane-1,3-diol salt (1:1)] | 47 nM | 1260 nM | 2020 nM | 500 nM
5 | O=C(O)CCc1ccc2c(c1)c(CCc1ccccc1)cn2-c1ccc(OCCO)cc1 [Example 229, 3-{1-[4-(2-hydroxyethoxy)phenyl]-3-(2-phenylethyl)-1H-indol-5-yl}propanoic acid 2-amino-2-(hydroxymethyl)propane-1,3-diol salt (1:1)] | 14 nM | 400 nM | 580 nM | 20 nM
6 | O=C(O)CCc1ccc2c(c1)c(CCc1ccccc1)cn2-c1ccc(Oc2ccccc2)cc1 [Example 231, 3-[1-(4-phenoxyphenyl)-3-(2-phenylethyl)-1H-indol-5-yl]propanoic acid 2-amino-2-(hydroxymethyl)propane-1,3-diol salt (1:1)] | 20 nM | 300 nM | 540 nM | 180 nM
